From ChEMBL document CHEMBL4673352, “Discovery of AZD4573, a Potent and Selective Inhibitor of CDK9 That Enables Short Duration of Target Engagement for the Treatment of Hematological Malignancies” (J Med Chem, 2020)
Converted amounts (≈) assume the structure as drawn.

Molecular target: T1, Cyclin-dependent kinase 9 (Homo sapiens, UniProt P50750)
Assay: Inhibition of CDK9 in human MV4-11 cells assessed as induction of caspase-3/7 activation measured after 6 hrs followed by Caspase-glo reagent based assay
Type: cell-based
Conditions: not given; call rule not given here

T1 sequence (P50750 whole entry): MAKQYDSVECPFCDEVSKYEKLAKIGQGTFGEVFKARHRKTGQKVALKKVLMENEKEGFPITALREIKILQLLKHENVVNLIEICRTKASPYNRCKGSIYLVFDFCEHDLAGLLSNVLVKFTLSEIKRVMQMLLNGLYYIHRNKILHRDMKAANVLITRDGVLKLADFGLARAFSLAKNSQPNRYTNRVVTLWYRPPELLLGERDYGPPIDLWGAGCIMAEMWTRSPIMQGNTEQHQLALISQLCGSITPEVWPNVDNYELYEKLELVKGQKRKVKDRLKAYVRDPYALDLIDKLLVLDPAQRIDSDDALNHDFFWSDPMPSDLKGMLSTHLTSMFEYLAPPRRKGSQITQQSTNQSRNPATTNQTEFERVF

EC50 | Compound
15 nM | CC(=O)N[C@@H]1CCC[C@H](C(=O)Nc2cc(-c3cnn4c3CC(C)(C)CC4)c(F)cn2)C1
700 nM | CC(=O)N[C@@H]1CCC[C@H](C(=O)Nc2cc(-c3cnc4n3CCC4)c(Cl)cn2)C1
160 nM | CC(=O)N[C@@H]1CCC[C@H](C(=O)Nc2cc(-c3cnn4c3CCCC4)c(F)cn2)C1
1200 nM | CC(=O)N[C@@H]1CCC[C@H](C(=O)Nc2cc(-c3cnc4n3CCCC4)c(Cl)cn2)C1
150 nM | CC(=O)N[C@@H]1CCC[C@H](C(=O)Nc2cc(-c3cnn4ccccc34)c(Cl)cn2)C1
180 nM | CC(=O)N[C@@H]1CCC[C@H](C(=O)Nc2cc(-c3cnn4c3CCCCC4)c(Cl)cn2)C1

Tested on: not listed separately
Assay: Drug level in human hepatocytes treated with (1S,3R)-3-Acetamido-N-(5-chloro-4-(4,5,6,7-tetrahydropyrazolo-[1,5-a]pyridin-3-yl)pyridin-2-yl)cyclohexanecarboxamide
Type: ADME, cell-based, Hepatocyte
Conditions: not given

Drug uptake | Compound
Active | CC(=O)N[C@@H]1CCC[C@H](C(=O)Nc2cc(-c3cn[nH]c3CCCCO)c(Cl)cn2)C1
Active | CC(=O)N[C@@H]1CCC[C@H](C(=O)Nc2cc(-c3cn[nH]c3CCCC(=O)O)c(Cl)cn2)C1
Active | CC(=O)N[C@@H]1CCC[C@H](C(=O)Nc2cc(-c3cnn4c3CCCC4O)c(Cl)cn2)C1 (stereo not given in full)

Molecular target: CDK9/cyclin T1 (Homo sapiens, UniProt P50750)
Sequence (O60563 whole entry, the tested form may be a part): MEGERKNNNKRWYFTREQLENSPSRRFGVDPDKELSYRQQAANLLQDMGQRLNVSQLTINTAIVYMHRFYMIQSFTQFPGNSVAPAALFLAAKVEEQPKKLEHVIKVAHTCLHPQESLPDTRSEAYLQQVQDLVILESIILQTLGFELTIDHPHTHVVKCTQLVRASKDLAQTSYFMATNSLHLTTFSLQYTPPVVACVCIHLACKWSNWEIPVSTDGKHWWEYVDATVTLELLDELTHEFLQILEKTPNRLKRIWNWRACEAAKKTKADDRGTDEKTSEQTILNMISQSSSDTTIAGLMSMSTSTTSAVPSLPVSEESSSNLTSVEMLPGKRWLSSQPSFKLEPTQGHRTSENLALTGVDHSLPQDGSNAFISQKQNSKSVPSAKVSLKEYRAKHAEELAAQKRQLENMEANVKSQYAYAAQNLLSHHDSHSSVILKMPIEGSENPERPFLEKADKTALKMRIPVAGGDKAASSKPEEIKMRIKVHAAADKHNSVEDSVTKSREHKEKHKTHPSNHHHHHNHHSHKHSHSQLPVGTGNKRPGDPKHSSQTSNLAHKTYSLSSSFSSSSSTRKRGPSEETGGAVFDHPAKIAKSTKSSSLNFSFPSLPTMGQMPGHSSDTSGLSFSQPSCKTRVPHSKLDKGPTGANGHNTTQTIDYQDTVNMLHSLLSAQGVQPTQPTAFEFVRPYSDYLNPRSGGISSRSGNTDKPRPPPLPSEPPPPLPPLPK
Sequence (P50750 whole entry, the tested form may be a part): as the sequence (P50750 whole entry) above
Assay: Inhibition of recombinant full length human N-terminal GST-fused CDK9 (1 to 372 residues)/His-tagged CyclinT1 (1 to 726 residues) expressed in baculovirus infected insect cells using FITC-X-GSRTPMY-NH2 as substrate preincubated for 10 mins followed by MgCl2 addition and measured after 90 mins in presence of 5 mM ATP by mobility shift assay
Conditions: not given

Compound | IC50
CC(=O)N[C@@H]1CCC[C@H](C(=O)Nc2cc(-c3nnn4c3CCCC4)c(Cl)cn2)C1 | 4400 nM
CC(=O)N[C@@H]1CCC[C@H](C(=O)Nc2cc(-c3cnc(C)n3C)c(Cl)cn2)C1 | 5300 nM

Continued, values first:

IC50 | Compound
20 nM | CC(=O)N[C@@H]1CCC[C@H](C(=O)Nc2cc(-c3cnn4c3CC(C)(C)C4O)c(Cl)cn2)C1 (stereo not given in full)
750 nM | CC(=O)N[C@@H]1CCC[C@H](C(=O)Nc2cc(-c3cnc4ccccn34)c(Cl)cn2)C1
< 3 nM | CC(=O)N[C@@H]1CCC[C@H](C(=O)Nc2cc(-c3cnn4c3CC(C)(C)CC4)c(F)cn2)C1
310 nM | CC(=O)N[C@@H]1CCC[C@H](C(=O)Nc2cc(-c3cnc4n3CCC4)c(Cl)cn2)C1
660 nM | CC(=O)N[C@@H]1CCC[C@H](C(=O)Nc2cc(-c3cnc4n3CCCC4)c(Cl)cn2)C1
61 nM | CC(=O)N[C@@H]1CCC[C@H](C(=O)Nc2cc(-c3cnn4ccccc34)c(Cl)cn2)C1

Tested on: not listed separately
Assay: Solubility of compound in phosphate buffer at pH 7.4 using dried form of sample
Type: physicochemical
Conditions: phosphate buffer, read-out: solubility

Compound | solubility
CC(=O)N[C@@H]1CCC[C@H](C(=O)Nc2cc(-c3nnn4c3CCCC4)c(Cl)cn2)C1 | 530 µM (≈ 221 µg/mL)
CC(=O)N[C@@H]1CCC[C@H](C(=O)Nc2cc(-c3cnc4n3CC(C)(C)C4)c(Cl)cn2)C1 | 280 µM (≈ 120 µg/mL)
CC(=O)N[C@@H]1CCC[C@H](C(=O)Nc2cc(-c3cnn4c3CC(C)(C)C4)c(C)cn2)C1 | 600 µM (≈ 246 µg/mL)
CC(=O)N[C@@H]1CCC[C@H](C(=O)Nc2cc(-c3cnc(C)n3C)c(Cl)cn2)C1 | > 1000 µM

Continued, values first:

solubility | Compound
120 µM (≈ 49.4 µg/mL) | CC(=O)N[C@@H]1CCC[C@H](C(=O)Nc2cc(-c3cnc4ccccn34)c(Cl)cn2)C1
160 µM (≈ 68.4 µg/mL) | CC(=O)N[C@@H]1CCC[C@H](C(=O)Nc2cc(-c3cnn4c3CC(C)(C)CC4)c(F)cn2)C1
490 µM (≈ 197 µg/mL) | CC(=O)N[C@@H]1CCC[C@H](C(=O)Nc2cc(-c3cnc4n3CCC4)c(Cl)cn2)C1
> 1000 µM | CC(=O)N[C@@H]1CCC[C@H](C(=O)Nc2cc(-c3cnn4c3CCCC4)c(F)cn2)C1
600 µM (≈ 250 µg/mL) | CC(=O)N[C@@H]1CCC[C@H](C(=O)Nc2cc(-c3cnc4n3CCCC4)c(Cl)cn2)C1
45 µM (≈ 18.5 µg/mL) | CC(=O)N[C@@H]1CCC[C@H](C(=O)Nc2cc(-c3cnn4ccccc34)c(Cl)cn2)C1
104 µM (≈ 44.7 µg/mL) | CC(=O)N[C@@H]1CCC[C@H](C(=O)Nc2cc(-c3cnn4c3CCCCC4)c(Cl)cn2)C1

Tested on: not listed separately
Assay: Drug level in human liver microsomes treated with (1S,3R)-3-Acetamido-N-(5-chloro-4-(4,5,6,7-tetrahydropyrazolo-[1,5-a]pyridin-3-yl)pyridin-2-yl)cyclohexanecarboxamide at 10 uM measured after 1 hr in presence of NADPH by LC-UV-MS analysis
Type: ADME, Microsome
Conditions: not given

Drug uptake | Compound
Active | CC(=O)N[C@@H]1CCC[C@H](C(=O)Nc2cc(-c3cn[nH]c3CCCCO)c(Cl)cn2)C1
Active | CC(=O)N[C@@H]1CCC[C@H](C(=O)Nc2cc(-c3cn[nH]c3CCCC(=O)O)c(Cl)cn2)C1
Active | CC(=O)N[C@@H]1CCC[C@H](C(=O)Nc2cc(-c3cnn4c3CCCC4O)c(Cl)cn2)C1 (stereo not given in full)

Tested on: not listed separately
Assay: Lipophilicity, log D of compound in buffer/octanol at pH 7.4 by shake flask method
Type: physicochemical
Conditions: not given

Compound | logD
CC(=O)N[C@@H]1CCC[C@H](C(=O)Nc2cc(-c3nnn4c3CCCC4)c(Cl)cn2)C1 | 2
CC(=O)N[C@@H]1CCC[C@H](C(=O)Nc2cc(-c3cnc4n3CC(C)(C)C4)c(Cl)cn2)C1 | 3.6
CC(=O)N[C@@H]1CCC[C@H](C(=O)Nc2cc(-c3cnn4c3CC(C)(C)C4)c(C)cn2)C1 | 3.1
CC(=O)N[C@@H]1CCC[C@H](C(=O)Nc2cc(-c3cnc(C)n3C)c(Cl)cn2)C1 | 2.2

Further lines, results first:

logD | Compound
3 | CC(=O)N[C@@H]1CCC[C@H](C(=O)Nc2cc(-c3cnc4ccccn34)c(Cl)cn2)C1
3.6 | CC(=O)N[C@@H]1CCC[C@H](C(=O)Nc2cc(-c3cnn4c3CC(C)(C)CC4)c(F)cn2)C1
2.6 | CC(=O)N[C@@H]1CCC[C@H](C(=O)Nc2cc(-c3cnc4n3CCC4)c(Cl)cn2)C1
2.9 | CC(=O)N[C@@H]1CCC[C@H](C(=O)Nc2cc(-c3cnn4c3CCCC4)c(F)cn2)C1
2.7 | CC(=O)N[C@@H]1CCC[C@H](C(=O)Nc2cc(-c3cnc4n3CCCC4)c(Cl)cn2)C1
3.6 | CC(=O)N[C@@H]1CCC[C@H](C(=O)Nc2cc(-c3cnn4ccccc34)c(Cl)cn2)C1
3.6 | CC(=O)N[C@@H]1CCC[C@H](C(=O)Nc2cc(-c3cnn4c3CCCCC4)c(Cl)cn2)C1

Molecular target: T1, Cyclin-dependent kinase 9
Assay: Inhibition of CDK9 in human MCF7 cells assessed as reduction in RNA Polymerase 2 CTD phosphorylation at Ser2 residues measured after 6 hrs by immunofluorescence assay
Type: cell-based
Conditions: not given

Compound | IC50
CC(=O)N[C@@H]1CCC[C@H](C(=O)Nc2cc(-c3cn[nH]c3CCCCO)c(Cl)cn2)C1 | > 2000 nM
CC(=O)N[C@@H]1CCC[C@H](C(=O)Nc2cc(-c3nnn4c3CCCC4)c(Cl)cn2)C1 | > 2600 nM
CC(=O)N[C@@H]1CCC[C@H](C(=O)Nc2cc(-c3cnc(C)n3C)c(Cl)cn2)C1 | > 3000 nM
CC(=O)N[C@@H]1CCC[C@H](C(=O)Nc2cc(-c3cn[nH]c3CC(C)(C)CO)c(Cl)cn2)C1 | > 2300 nM

Second part, the molecule after the results:

IC50 | Compound
170 nM | CC(=O)N[C@@H]1CCC[C@H](C(=O)Nc2cc(-c3cnn4c3CC(C)(C)C4O)c(Cl)cn2)C1 (stereo not given in full)
1600 nM | CC(=O)N[C@@H]1CCC[C@H](C(=O)Nc2cc(-c3cnc4ccccn34)c(Cl)cn2)C1
720 nM | CC(=O)N[C@@H]1CCC[C@H](C(=O)Nc2cc(-c3cnn4c3CCCC4O)c(Cl)cn2)C1 (stereo not given in full)
10 nM | CC(=O)N[C@@H]1CCC[C@H](C(=O)Nc2cc(-c3cnn4c3CC(C)(C)CC4)c(F)cn2)C1
760 nM | CC(=O)N[C@@H]1CCC[C@H](C(=O)Nc2cc(-c3cnc4n3CCC4)c(Cl)cn2)C1
100 nM | CC(=O)N[C@@H]1CCC[C@H](C(=O)Nc2cc(-c3cnn4c3CCCC4)c(F)cn2)C1
1200 nM | CC(=O)N[C@@H]1CCC[C@H](C(=O)Nc2cc(-c3cnc4n3CCCC4)c(Cl)cn2)C1
140 nM | CC(=O)N[C@@H]1CCC[C@H](C(=O)Nc2cc(-c3cnn4ccccc34)c(Cl)cn2)C1
92 nM | CC(=O)N[C@@H]1CCC[C@H](C(=O)Nc2cc(-c3cnn4c3CCCCC4)c(Cl)cn2)C1

Tested on: not listed separately
Assay: Intrinsic clearance in human liver microsome
Type: ADME, microsomes
Conditions: liver microsomes, read-out: CLH

Compound | microsomal CLint
CC(=O)N[C@@H]1CCC[C@H](C(=O)Nc2cc(-c3cn[nH]c3CCCCO)c(Cl)cn2)C1 | 15 µL/min/mg
CC(=O)N[C@@H]1CCC[C@H](C(=O)Nc2cc(-c3cnc4n3CC(C)(C)C4)c(Cl)cn2)C1 | 63 µL/min/mg
CC(=O)N[C@@H]1CCC[C@H](C(=O)Nc2cc(-c3cnn4c3CC(C)(C)C4)c(C)cn2)C1 | 19 µL/min/mg
CC(=O)N[C@@H]1CCC[C@H](C(=O)Nc2cc(-c3cn[nH]c3CC(C)(C)CO)c(Cl)cn2)C1 | 24 µL/min/mg

Continued, values first:

microsomal CLint | Compound
14 µL/min/mg | CC(=O)N[C@@H]1CCC[C@H](C(=O)Nc2cc(-c3cnn4c3CC(C)(C)C4O)c(Cl)cn2)C1 (stereo not given in full)
18 µL/min/mg | CC(=O)N[C@@H]1CCC[C@H](C(=O)Nc2cc(-c3cnn4c3CCCC4O)c(Cl)cn2)C1 (stereo not given in full)
178 µL/min/mg | CC(=O)N[C@@H]1CCC[C@H](C(=O)Nc2cc(-c3cnn4c3CC(C)(C)CC4)c(F)cn2)C1
9.7 µL/min/mg | CC(=O)N[C@@H]1CCC[C@H](C(=O)Nc2cc(-c3cnc4n3CCC4)c(Cl)cn2)C1
< 3 µL/min/mg | CC(=O)N[C@@H]1CCC[C@H](C(=O)Nc2cc(-c3cnn4c3CCCC4)c(F)cn2)C1
16 µL/min/mg | CC(=O)N[C@@H]1CCC[C@H](C(=O)Nc2cc(-c3cnc4n3CCCC4)c(Cl)cn2)C1
39 µL/min/mg | CC(=O)N[C@@H]1CCC[C@H](C(=O)Nc2cc(-c3cnn4c3CCCCC4)c(Cl)cn2)C1

Tested on: not listed separately
Assay: Intrinsic clearance in rat cryopreserved hepatocytes assessed per million cells […]
Type: ADME, cell-based, Hepatocyte
Conditions: cryopreserved hepatocytes, read-out: CLH

Compound | hepatocyte CLint
CC(=O)N[C@@H]1CCC[C@H](C(=O)Nc2cc(-c3cnc4n3CC(C)(C)C4)c(Cl)cn2)C1 | 28 µL/min/1e6 cells
CC(=O)N[C@@H]1CCC[C@H](C(=O)Nc2cc(-c3cnn4c3CC(C)(C)C4)c(C)cn2)C1 | 53 µL/min/1e6 cells

Second part, the molecule after the results:

hepatocyte CLint | Compound
42 µL/min/1e6 cells | CC(=O)N[C@@H]1CCC[C@H](C(=O)Nc2cc(-c3cnn4c3CC(C)(C)CC4)c(F)cn2)C1
19 µL/min/1e6 cells | CC(=O)N[C@@H]1CCC[C@H](C(=O)Nc2cc(-c3cnc4n3CCC4)c(Cl)cn2)C1
73 µL/min/1e6 cells | CC(=O)N[C@@H]1CCC[C@H](C(=O)Nc2cc(-c3cnn4c3CCCC4)c(F)cn2)C1
12 µL/min/1e6 cells | CC(=O)N[C@@H]1CCC[C@H](C(=O)Nc2cc(-c3cnc4n3CCCC4)c(Cl)cn2)C1
51 µL/min/1e6 cells | CC(=O)N[C@@H]1CCC[C@H](C(=O)Nc2cc(-c3cnn4c3CCCCC4)c(Cl)cn2)C1

Tested on: not listed separately
Assay: Intrinsic clearance in human cryopreserved hepatocytes assessed per million cells […]
Type: ADME, cell-based, Hepatocyte
Conditions: read-out: CLH

Compound | hepatocyte CLint
CC(=O)N[C@@H]1CCC[C@H](C(=O)Nc2cc(-c3cn[nH]c3CCCCO)c(Cl)cn2)C1 | 2.9 µL/min/1e6 cells
CC(=O)N[C@@H]1CCC[C@H](C(=O)Nc2cc(-c3cnc4n3CC(C)(C)C4)c(Cl)cn2)C1 | 2.5 µL/min/1e6 cells
CC(=O)N[C@@H]1CCC[C@H](C(=O)Nc2cc(-c3cn[nH]c3CC(C)(C)CO)c(Cl)cn2)C1 | < 1 µL/min/1e6 cells

The remaining lines, values ahead:

hepatocyte CLint | Compound
48 µL/min/1e6 cells | CC(=O)N[C@@H]1CCC[C@H](C(=O)Nc2cc(-c3cnn4c3CC(C)(C)C4O)c(Cl)cn2)C1 (stereo not given in full)
33 µL/min/1e6 cells | CC(=O)N[C@@H]1CCC[C@H](C(=O)Nc2cc(-c3cnn4c3CCCC4O)c(Cl)cn2)C1 (stereo not given in full)
23 µL/min/1e6 cells | CC(=O)N[C@@H]1CCC[C@H](C(=O)Nc2cc(-c3cnn4c3CC(C)(C)CC4)c(F)cn2)C1
4.6 µL/min/1e6 cells | CC(=O)N[C@@H]1CCC[C@H](C(=O)Nc2cc(-c3cnn4c3CCCCC4)c(Cl)cn2)C1
